Results: patent US20240270732A1, “RECEPTOR-INTERACTING PROTEIN INHIBITOR, PREPARATION METHOD THEREFOR, AND USE THEREOF” (CHENGDU BIOBEL BIOTECHNOLOGY CO., LTD, priority 2021, published 2024)

Assays:
[1] = system: human pancreatic cancer cells PANC-1; test: Inhibition of necrosis of PANC-1 cells induced by TNF-α (CellTiter-Glo); assay type: cell-based; conditions: TNF-α 100 ng/ml + AT-406 1 μM + z-VAD-FMK 20 μM, 24 h
Method: (§1) After the cells were incubated in a 5% CO2 incubator at 37° C. for 24 h, the test compound of the present invention and the control compound were diluted to the corresponding pre-determined concentration using the medium, and added to the 384-well plate at 5 μL/well. […] Then, 30 μL of CellTiter-Glo luminescent solution was added to each well, and shaken for 2 min. After standing at room temperature for 10 min, the absorbance was measured using ELISA. […] A is the group without necrosis-inducing agents, and B is the group with necrosis-inducing agents. […] A is the group without necrosis-inducing agents, B is the group with necrosis-inducing agents, and X is the group with compounds and necrosis-inducing agents.

[2] = system: U937 cells; test: Inhibition of necrosis of U937 cells induced by TNF-α (CellTiter-Glo); assay type: cell-based; conditions: Homo sapiens, U-937; TNF-α 100 ng/ml + AT-406 1 μM + z-VAD-FMK 20 μM, 24 h
Method: After the cells were incubated in a 5% CO2 incubator at 37° C. for 24 h, the test compound of the present invention and the control compound were diluted to the corresponding pre-determined concentration using the medium, and added to the 384-well plate at 5 μL/well. […] Then, 30 μL of CellTiter-Glo luminescent solution was added to each well, and shaken for 2 min. After standing at room temperature for 10 min, the absorbance was measured using an enzyme-linked immunosorbent assay (ELISA). […] A is the group without necrosis-inducing agents, and B is the group with necrosis-inducing agents.

[3] = system: HacaT cells; test: Inhibition of necrosis of HacaT cells induced by TNF-α (CellTiter-Glo); assay type: cell-based; conditions: Homo sapiens, TNF-α 100 ng/ml + AT-406 1 μM + z-VAD-FMK 20 μM, 24 h
Method: […] (purchased from ATCC) in logarithmic growth phase were collected and resuspended in 1640 medium, and then the cell concentration was adjusted to 20 cells/μL, to obtain cell suspension, which was seeded in 384-well plate, with 20 μL cell suspension for each well. After the cells were cultured in a 5% CO2 incubator at 37° C. for 24 h, the test compound of the present invention and the control compound were diluted to the corresponding pre-determined concentration using the medium, and added to the 384-well plate at 5 µL/well. […] Then, 30 μL of CellTiter-Glo luminescent solution was added to each well, and shaken for 2 min. After standing at room temperature for 10 min, the absorbance was measured using ELISA. […] A is the group without necrosis-inducing agents, and B is the group with necrosis-inducing agents.

[4] = system: human colon cancer cells HT-29; test: Inhibition of necrosis of HT-29 cells induced by TNF-α (CellTiter-Glo); assay type: cell-based; conditions: TNF-α 100 ng/ml + AT-406 1 μM + z-VAD-FMK 20 μM, 24 h
Method: as §1

[5] = molecular target: human RIP1 kinase (Homo sapiens (Human), UniProt Q13546); test: Inhibitory activity on RIP1 kinase (ADP-Glo); assay type: biochemical; conditions: human RIP kinase 25 nM
Chain of human RIP1 kinase (Q13546 whole entry): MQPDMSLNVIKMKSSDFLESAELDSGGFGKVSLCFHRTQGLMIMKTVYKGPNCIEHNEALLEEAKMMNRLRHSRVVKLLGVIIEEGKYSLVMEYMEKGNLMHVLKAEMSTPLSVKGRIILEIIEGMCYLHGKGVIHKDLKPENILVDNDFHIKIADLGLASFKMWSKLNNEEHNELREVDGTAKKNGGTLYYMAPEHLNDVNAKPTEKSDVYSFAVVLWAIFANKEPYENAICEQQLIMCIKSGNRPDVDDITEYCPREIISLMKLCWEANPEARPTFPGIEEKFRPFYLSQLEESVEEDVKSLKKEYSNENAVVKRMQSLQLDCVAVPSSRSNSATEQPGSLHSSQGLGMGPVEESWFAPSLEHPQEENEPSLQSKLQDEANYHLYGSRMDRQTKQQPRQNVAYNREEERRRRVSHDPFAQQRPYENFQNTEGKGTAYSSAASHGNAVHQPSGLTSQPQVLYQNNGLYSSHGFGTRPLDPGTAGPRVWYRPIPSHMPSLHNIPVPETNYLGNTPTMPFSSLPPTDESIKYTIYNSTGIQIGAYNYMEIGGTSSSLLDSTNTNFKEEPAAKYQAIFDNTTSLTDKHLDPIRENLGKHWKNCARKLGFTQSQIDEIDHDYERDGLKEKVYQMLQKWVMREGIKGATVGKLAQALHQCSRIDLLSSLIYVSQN
Method: The compound of the present invention and the control compound were dissolved in the assay buffer (50 mM Hepes pH 7.5, 50 mM NaCl, 30 mM MgCl2, 1 mM DTT, 0.02% CHAPS, 0.5 mg/mL BSA), and diluted in a ratio of 1:1.5 using a 22-point titration (high concentration 2 μM), and then added to a 384-well plate. […] After completion of the reaction, 5 μL of ADP-Glo reagent containing 0.02% CHAPS was added to each well and incubated at room temperature for 1 h to terminate the kinase reaction and use up all remaining ATP. Then, 5 μL of ADP-Glo detection solution containing 0.02% CHAPS was added to each well and incubated at room temperature for 30 min to measure the emittance intensity. For each ATP concentration, the activity data was obtained by the emittance intensity minus the control intensity.

| Structure (SMILES) | IC50 ([1]; Homo sapiens, PANC-1) [nM] | IC50 [2] [nM] | IC50 ([4]; Homo sapiens, HT-29) [nM] | IC50 [5] [nM] | other results |
| --- | --- | --- | --- | --- | --- |
| C[C@H]1Oc2ccc(C#CCN3CCN(CC#Cc4ccc5c(c4)N(C)C(=O)[C@@H](NC(=O)c4n[nH]c(Cc6ccccc6)n4)[C@@H](C)O5)CC3)cc2N(C)C(=O)[C@H]1NC(=O)c1n[nH]c(Cc2ccccc2)n1 [Compound I-2] | 24.4 | 4.47 | 13 |  | IC50 [3]: 3.89 nM |
| CN1C(=O)[C@@H](NC(=O)c2n[nH]c(Cc3ccccc3)n2)COc2ccc(C#CCN3CCN(CC#Cc4ccc5c(c4)N(C)C(=O)[C@@H](NC(=O)c4n[nH]c(Cc6ccccc6)n4)CO5)CC3)cc21 [Compound I-11] | 20.4 | 2.09 | 10.8 |  | IC50 [3]: 2.97 nM |
| [2H]C([2H])([2H])N1C(=O)[C@@H](NC(=O)c2n[nH]c(Cc3ccccc3)n2)[C@@H](C)Oc2ccc(C#CCN3CCN(CC#C)CC3)cc21 [Compound I-14] |  |  |  | 4.52 |  |
| [2H]C([2H])([2H])N1C(=O)[C@@H](NC(=O)c2n[nH]c(Cc3ccccc3)n2)[C@@H](C)Oc2ccc(C#CCN3CCN(CC#Cc4ccc5c(c4)N(C([2H])([2H])[2H])C(=O)[C@@H](NC(=O)c4n[nH]c(Cc6ccccc6)n4)[C@@H](C)O5)CC3)cc21 [Compound I-15] |  |  |  | 4.88 |  |
| C[C@H]1Oc2ccc(C#CCN3CCN(CC#Cc4ccc5c(c4)N(C)C(=O)[C@@H](NC(=O)c4ncn(Cc6ccccc6)n4)[C@@H](C)O5)CC3)cc2N(C)C(=O)[C@H]1NC(=O)c1ncn(Cc2ccccc2)n1 [Compound I-23] | 17.8 | 5.91 | 26.4 |  | IC50 [3]: 2.68 nM |
| CN1C(=O)[C@@H](NC(=O)c2ncn(Cc3ccccc3)n2)COc2ccc(C#CCN3CCN(CC#Cc4ccc5c(c4)N(C)C(=O)[C@@H](NC(=O)c4ncn(Cc6ccccc6)n4)CO5)CC3)cc21 [Compound I-30] | 16 | 4.89 | 16.6 | 2.62 | IC50 [3]: 4.07 nM |
| [2H]C([2H])([2H])N1C(=O)[C@@H](NC(=O)c2ncn(Cc3ccccc3)n2)[C@@H](C)Oc2ccc(C#CCN3CCN(CC#C)CC3)cc21 [Compound I-35] |  |  |  | 5.89 |  |
| C[C@H]1Oc2ccc(C#CCN3CCN(CC#Cc4ccc5c(c4)NC(=O)[C@@H](NC(=O)c4ncn(Cc6ccccc6)n4)[C@@H](C)O5)CC3)cc2NC(=O)[C@H]1NC(=O)c1ncn(Cc2ccccc2)n1 [Compound I-38] |  |  |  | 4.18 |  |
| C#CCN1CCN(CC#Cc2ccc3c(c2)N(C)C(=O)[C@@H](NC(=O)c2ncn(Cc4ccccc4)n2)[C@H](C)O3)CC1 [Compound I-39] |  |  |  | 79 |  |
| C[C@@H]1Oc2ccc(C#CCN3CCN(CC#Cc4ccc5c(c4)N(C)C(=O)[C@@H](NC(=O)c4ncn(Cc6ccccc6)n4)[C@@H](C)O5)CC3)cc2N(C)C(=O)[C@H]1NC(=O)c1ncn(Cc2ccccc2)n1 [Compound I-40] |  |  |  | 66.3 |  |
| CN1C(=O)[C@@H](NC(=O)c2n[nH]c(Cc3ccccc3)n2)COc2ccc(C#CCCCCC#Cc3ccc4c(c3)N(C)C(=O)[C@@H](NC(=O)c3n[nH]c(Cc5ccccc5)n3)CO4)cc21 [Compound I-80] |  |  |  | 8.85 |  |
| C[C@H]1Oc2ccc(C#CCOCCOCCOCCOCCOCC#CC#CCOCCOCCOCCOCCOCC#Cc3ccc4c(c3)N(C)C(=O)[C@H](NC(=O)c3ncn(Cc5ccccc5)n3)[C@@H](C)O4)cc2N(C)C(=O)[C@@H]1NC(=O)c1ncn(Cc2ccccc2)n1 [Compound I-89] |  |  |  | 7.44 |  |
| CN1C(=O)[C@H](NC(=O)c2ncn(Cc3ccccc3)n2)COc2ccc(C#CCOCCOCCOCCOCCOCC#CC#CCOCCOCCOCCOCCOCC#Cc3ccc4c(c3)N(C)C(=O)[C@H](NC(=O)c3ncn(Cc5ccccc5)n3)CO4)cc21 [Compound I-90] |  |  |  | 6.29 |  |
| COCCOCCOCCOCCOCC#Cc1ccc2c(c1)N(C)C(=O)[C@@H](NC(=O)c1n[nH]c(Cc3ccccc3)n1)CO2 [Compound I-100] | 12.5 | 3.14 | 8.65 |  | IC50 [3]: 2.39 nM |
| COCCOCCOCCOCCOCC#Cc1ccc2c(c1)N(C)C(=O)[C@@H](NC(=O)c1ncn(Cc3ccccc3)n1)[C@@H](C)O2 [Compound I-101] | 13.7 | 5.62 | 10.1 |  | IC50 [3]: 2.95 nM |
| COCCOCCOCCOCCOCC#Cc1ccc2c(c1)N(C)C(=O)[C@@H](NC(=O)c1ncn(Cc3ccccc3)n1)CO2 [Compound I-102] | 13.8 | 2.08 | 7.92 |  | IC50 [3]: 3.58 nM |
| CC(O)C#Cc1ccc2c(c1)N(C)C(=O)[C@@H](NC(=O)c1ncn(Cc3ccccc3)n1)[C@@H](C)O2 (stereo partly drawn) [Compound I-104] |  |  |  | 10.2 |  |
| C[C@H]1Oc2ccc(C#Cc3ccncc3)cc2N(C)C(=O)[C@H]1NC(=O)c1n[nH]c(Cc2ccccc2)n1 [Compound I-109] | 12.6 |  | 13.1 |  |  |
| C[C@H]1Oc2ccc(C#Cc3ccncc3)cc2N(C)C(=O)[C@H]1NC(=O)c1ncn(Cc2ccccc2)n1 [Compound I-110] | 11.1 |  | 10.9 |  |  |
| C[C@H]1Oc2ccc(C#Cc3cccnc3)cc2N(C)C(=O)[C@H]1NC(=O)c1n[nH]c(Cc2ccccc2)n1 [Compound I-111] | 12.4 |  | 13.7 |  |  |
| C[C@H]1Oc2ccc(C#Cc3cccnc3)cc2N(C)C(=O)[C@H]1NC(=O)c1ncn(Cc2ccccc2)n1 [Compound I-112] |  |  |  | 7.21 | IC50 [1]: 11.3 nM; IC50 [4]: 10 nM |
| C[C@H]1Oc2ccc(C#Cc3cccc(N)c3)cc2N(C)C(=O)[C@H]1NC(=O)c1n[nH]c(Cc2ccccc2)n1 [Compound I-117] |  |  |  | 12.7 |  |
| C#Cc1ccc2c(c1)N(C)C(=O)[C@@H](NC(=O)c1nc(Cc3ccccc3)n[nH]1)[C@@H](C)O2 [Compound I-119] | 17.1 | 3.19 | 15.3 |  |  |
| C#Cc1ccc2c(c1)N(C)C(=O)[C@@H](NC(=O)c1ncn(Cc3ccccc3)n1)[C@@H](C)O2 [Compound I-120] | 15.7 | 4.05 | 14.6 |  |  |
| CN1C(=O)[C@@H](NC(=O)c2ncn(Cc3ccccc3)n2)COc2ccc(CCCN3CCN(CCCc4ccc5c(c4)N(C)C(=O)[C@@H](NC(=O)c4ncn(Cc6ccccc6)n4)CO5)CC3)cc21 [Compound I-121] |  | 6.12 |  |  |  |
| C[C@H]1Oc2ccc(CCCN3CCN(CCCc4ccc5c(c4)N(C)C(=O)[C@@H](NC(=O)c4ncn(Cc6ccccc6)n4)[C@@H](C)O5)CC3)cc2N(C)C(=O)[C@H]1NC(=O)c1ncn(Cc2ccccc2)n1 [Compound I-122] |  | 7.14 |  |  |  |
| CN1C(=O)[C@@H](NC(=O)c2n[nH]c(Cc3ccccc3)n2)COc2ccc(CCCN3CCN(CCCc4ccc5c(c4)N(C)C(=O)[C@@H](NC(=O)c4n[nH]c(Cc6ccccc6)n4)CO5)CC3)cc21 [Compound I-123] |  | 4.45 |  |  |  |
| C[C@H]1Oc2ccc(CCCN3CCN(CCCc4ccc5c(c4)N(C)C(=O)[C@@H](NC(=O)c4n[nH]c(Cc6ccccc6)n4)[C@@H](C)O5)CC3)cc2N(C)C(=O)[C@H]1NC(=O)c1n[nH]c(Cc2ccccc2)n1 [Compound I-124] |  | 6.75 |  |  |  |
| CN1C(=O)[C@@H](NC(=O)c2n[nH]c(Cc3ccccc3)n2)COc2ccccc21 [Control compound 3, reference compound] | 51.3 | 7.15 | > 100 |  | IC50 [3]: 9.92 nM |
